For 6 compounds, EC50, IC50 and AC50 results are on record in ChEMBL document CHEMBL1201862, “PubChem BioAssay data set” (2004).

Activity calls are given as the source filed them.

In test [1] the target is T1, Kappa-type opioid receptor (Homo sapiens, UniProt P41145). The test is described as follows: KOR agonist analogs, arrestin-GFP redistribution, SAR follow-up, imaging, image-based, set 3 (AID 488833). Format: functional.
For test [2], the target named is Delta-type opioid receptor (Homo sapiens, UniProt P41143). The test is described as follows: SAR Analysis of Agonists of the DOR Receptor using an Image-Based Assay - Set 3. [Related pubchem assays (depositor defined):AID1777, AID1786]. Format: functional.
In test [3] the target is T1, Kappa-type opioid receptor. Description: SAR analysis of small molecule agonists of the kappa opioid receptor via a luminescent beta-arrestin assay - Set 3. [Related pubchem assays (depositor defined):AID1777, AID1785, AID1786, AID1966, AID2133, AID2136, AID2284, AID2500]. The class given is functional.
Another test addresses Mu-type opioid receptor (Homo sapiens, UniProt P35372). Description: SAR Analysis of Agonists of the MOR Receptor using an Image-Based Assay - Set 3. [Related pubchem assays (depositor defined):AID1777, AID1785, AID1786, AID1966, AID2133, AID2136, AID2284, AID2285, AID2352]. Format: functional.
The target of test [4] is Sphingosine 1-phosphate receptor 4 (Homo sapiens, UniProt O95977). Description: Fluorescence dose response cell-based high throughput screening assay for agonists of the Sphingosine 1-Phosphate Receptor 4 (S1P4). [Related pubchem assays: 1509 (Primary screen.), 1523 (Confirmation screen in triplicates.)]. Format: functional.
In test [5] the target is Sphingosine 1-phosphate receptor 1 (Homo sapiens, UniProt P21453). The test is described as follows: Fluorescence-based counterscreen assay for S1P4 agonists: Cell-based dose response high throughput screening assay to identify agonists of the Sphingosine 1-Phosphate Receptor 1 (S1P1). [Related pubchem assays (depositor defined):AID1509, AID1523, AID1801, AID463107, AID463118, AID463119, AID463122, AID463123, AID463129, AID463225, AID504400, AID504460]. Format: functional. Background: A counterscreen serves to expose hits that act by an unwanted route or on another target.

In the next test the target is Large T antigen (Simian virus 40, UniProt P03070). Format: functional, Betapolyomavirus macacae.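 Note: Confirmatory-stage PubChem screen for compounds that inhibit SV40 T antigen.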
The nature of test [6]: cells. The class given is functional.
The target in test [7] is Intestinal-type alkaline phosphatase (Mus musculus, UniProt P24822). Description: PubChem AID 488874. Format: functional.
For test [8], the target named is T2, Intestinal-type alkaline phosphatase (Homo sapiens, UniProt P09923). The test is described as follows: human intestinal alkaline phosphatase activators, dose response, biochemical, luminescence, uHTS hits (AID 463120). Format: functional.
Test [9] has as its target T3, Alkaline phosphatase, tissue-nonspecific isozyme (Homo sapiens, UniProt P05186).
T3 sequence (P05186 whole entry): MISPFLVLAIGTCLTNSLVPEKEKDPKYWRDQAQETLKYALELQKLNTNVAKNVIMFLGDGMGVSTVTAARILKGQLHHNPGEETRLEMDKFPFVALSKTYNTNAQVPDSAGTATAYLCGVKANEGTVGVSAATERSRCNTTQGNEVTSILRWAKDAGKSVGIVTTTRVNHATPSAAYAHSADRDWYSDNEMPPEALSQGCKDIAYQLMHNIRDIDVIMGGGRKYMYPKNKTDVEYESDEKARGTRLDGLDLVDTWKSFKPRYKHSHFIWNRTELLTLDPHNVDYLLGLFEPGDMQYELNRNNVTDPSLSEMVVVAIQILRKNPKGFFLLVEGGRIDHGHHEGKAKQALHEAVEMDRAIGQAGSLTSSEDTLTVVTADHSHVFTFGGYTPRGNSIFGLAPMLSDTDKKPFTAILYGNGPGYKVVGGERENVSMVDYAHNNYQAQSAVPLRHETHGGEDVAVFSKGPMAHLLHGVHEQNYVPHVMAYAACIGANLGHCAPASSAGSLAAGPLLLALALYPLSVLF
The test is described as follows: TNAP enzyme activators, dose response, selectivity assay for human IAP activator project, biochemical, TNAP isozyme, human IAP uHTS hits (AID 488886).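 Note: potency of compounds raising TNAP activity as a selectivity check on IAP activators.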 Format: functional.

Test [10] has as its target T2, Intestinal-type alkaline phosphatase. The test is described as follows: human IAP activators, dose response, biochemical, luminescent, uHTS hits, set 2 (AID 488817).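 Note: potency of activators that raise enzyme activity.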 The class given is functional.
In test [11] the target is T3, Alkaline phosphatase, tissue-nonspecific isozyme.
In test [12] the target is Protein-arginine deiminase type-4 (Homo sapiens, UniProt Q9UM07). Description: human PAD4 inhibitor potency, dose response, biochemical, fluorescence readout (AID 492970).
Test [13] has as its target Peroxisome proliferator-activated receptor gamma/Nuclear receptor coactivator 1 (Homo sapiens, UniProt P37231). Description: TR-FRET dose response biochemical High Throughput Screening assay for agonists of the steroid receptor coactivator 1 (SRC-1) recruitment by the peroxisome proliferator-activated receptor gamma (PPAR gamma): non-selective agonists. [Related pubchem assays (depositor defined):AID1300, AID1808, AID504735, AID631]. The class given is protein assay.

In test [14] the target is Peroxisome proliferator-activated receptor gamma/Nuclear receptor coactivator 2 (Homo sapiens, UniProt P37231). The test is described as follows: TR-FRET dose response biochemical High Throughput Screening assay for agonists of the steroid receptor coactivator 2 (SRC-2) recruitment by the peroxisome proliferator-activated receptor gamma (PPAR gamma): non-selective agonists. [Related pubchem assays: 1297, 1032 ]. Format: functional. Background: Time-resolved FRET reads energy transfer from a long-lived donor to a nearby acceptor.

Test [15] addresses Peroxisome proliferator-activated receptor gamma/Nuclear receptor coactivator 3 (Homo sapiens, UniProt P37231). The test is described as follows: TR-FRET dose response biochemical High Throughput Screening assay for agonists of the steroid receptor coactivator 3 (SRC-3) recruitment by the peroxisome proliferator-activated receptor gamma (PPAR gamma): non-selective agonists. [Related pubchem assays: 1301 (Confirmation screen.), 1048 (Primary screen.)]. Format: functional.

Test [16] is described as follows: Luminescence Cell-Based Dose Response HTS to Identify Inhibitors of 5'UTR Stem-Loop Driven Prion Protein mRNA Translation in H4 Neuroglioblastoma Cells. [Related pubchem assays: 1827 (Project Summary), 1813 (Primary HTS)]. Format: functional.
Test [17] can be described thus: cells. The class given is functional, cell-based.
The target in a further test is Beta-galactosidase (Escherichia coli, UniProt Q8VNN2). The class given is functional.
Test [18] in a line: cytotoxicity toward NIH3T3 fibroblasts, dose response, counter-screen, cell-based, ATP luminescence, mouse fibroblasts (AID 2010).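 Note: cells exposed to compound for about 90 hours before reading.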 Format: functional.
Test [19] is described as follows: cytotoxicity in HEK-293T cells, dose response, cytotoxicity control for TCR NF-kB inhibitor project, luminescence, T-cell screen hits (AID 489026).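 Note: cells exposed to compound about 14 hours before the viability readout.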 The class given is functional, cell-based.
A short description of test [20]: inhibitors of intracellular T. cruzi replication, confirmation, NIH3T3 host cells, beta-gal luminescence (AID 2044).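 Note: intracellular parasites grown in NIH/3T3 mouse fibroblasts as host cells; luminescent beta-galactosidase reporter signal from transgenic T. cruzi replicating inside host cells; inhibitors lower the luminescence signal.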 Format: functional, cell-based.
Another test addresses Nonstructural protein 1 (Influenza A virus, UniProt Q194T2). Format: functional, Influenza A virus (A/California/07/2009(H1N1)).
The nature of test [21]: Counterscreen for AddAB inhibitors: absorbance-based bacterial cell-based high throughput dose response assay for inhibitors of bacterial viability. [Related pubchem assays (depositor defined):AID435030, AID449728, AID449731, AID488942, AID488955, AID488956]. Format: functional.
A further test deals with Exodeoxyribonuclease V (Escherichia coli (strain K12), UniProt P04993+P07648+P08394). Description: E. coli RecBCD inhibitors, dose response, counter-screen for AddAB inhibitor project, absorbance, V66 E. coli, mutant T4 phage (AID 492957). The class given is functional, cell-based, Escherichia coli str. K-12 substr. MG1655.
The target in test [22] is T1, Kappa-type opioid receptor. The class given is functional.
Test [23] can be described thus: inhibitors of firefly luciferase expression or activity, dose response, H4 neuroglioma cells, luminescence (AID 1990). Format: functional, cell-based.
Test [24] addresses T1, Kappa-type opioid receptor. Format: functional. This is another data set of the same source.
A short description of test [25]: cells. Format: functional, cell-based. The source holds these as a separate data set.
In another test the test system is INS1. The test is described as follows: beta cell apoptosis inhibitors, cytokine rescue, dose response, luminescence, retest (AID 449756).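 Note: cell death triggered by IL-1 beta plus TNF-alpha plus IFN-gamma mixture; protective hits raise ATP signal compared with cytokine alone wells.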 Format: functional, cell-based. Particulars: Rattus norvegicus.
The next test concerns HEK293. The test is described as follows: inhibitors of LMP1-driven NF-kB reporter, dose response, cell-based, HEK293, luciferase, cherry-pick (AID 588343). The class given is functional. Particulars: Homo sapiens.
Test [26] concerns the target Heat shock protein HSP 90-alpha (Homo sapiens, UniProt P07900). Format: functional, organism-based.
Test [27] addresses T4, Heat shock factor protein 1 (Mus musculus, UniProt P38532).
T4 sequence (P38532 whole entry): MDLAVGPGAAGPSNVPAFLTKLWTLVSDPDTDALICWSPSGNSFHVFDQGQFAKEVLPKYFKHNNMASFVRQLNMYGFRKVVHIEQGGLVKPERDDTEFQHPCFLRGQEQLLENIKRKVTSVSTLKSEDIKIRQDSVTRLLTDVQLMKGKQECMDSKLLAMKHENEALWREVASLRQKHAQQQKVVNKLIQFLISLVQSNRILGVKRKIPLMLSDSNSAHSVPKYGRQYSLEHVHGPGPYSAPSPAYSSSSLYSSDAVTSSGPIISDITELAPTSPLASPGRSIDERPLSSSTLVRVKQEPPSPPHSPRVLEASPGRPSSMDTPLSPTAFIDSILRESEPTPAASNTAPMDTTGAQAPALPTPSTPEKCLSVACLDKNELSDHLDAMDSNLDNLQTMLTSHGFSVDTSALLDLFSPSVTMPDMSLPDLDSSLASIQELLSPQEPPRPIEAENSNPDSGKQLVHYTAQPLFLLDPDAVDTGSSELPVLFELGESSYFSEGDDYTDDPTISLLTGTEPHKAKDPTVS
Description: inhibition of MG132-induced HSE-luciferase signal, confirmation, cell-based, NIH3T3, luminescence, dose retest (AID 2382).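 Note: NIH3T3 fibroblasts with HSF1-driven luciferase reporter stressed by proteasome inhibitor MG132; luminescence from HSF1-driven luciferase expression after 8 hours of MG132 stress.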 The class given is functional.

Test [28] in a line: inhibitors of SNCA 5'UTR-driven reporter translation, confirmation, H4 neuroglioma cells, luminescence (AID 1988). The class given is functional, cell-based.

T1 sequence (P41145 whole entry): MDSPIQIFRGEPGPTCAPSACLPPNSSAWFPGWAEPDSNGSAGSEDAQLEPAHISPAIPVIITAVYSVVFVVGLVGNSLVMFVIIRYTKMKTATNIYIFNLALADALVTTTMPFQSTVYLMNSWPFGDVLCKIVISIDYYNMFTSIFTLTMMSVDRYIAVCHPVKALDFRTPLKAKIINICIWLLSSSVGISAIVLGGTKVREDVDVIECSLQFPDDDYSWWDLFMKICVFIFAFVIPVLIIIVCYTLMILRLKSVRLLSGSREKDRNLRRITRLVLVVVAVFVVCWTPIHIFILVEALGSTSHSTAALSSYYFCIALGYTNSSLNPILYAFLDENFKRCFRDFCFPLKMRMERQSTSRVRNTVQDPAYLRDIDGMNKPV
T2 sequence (P09923 whole entry): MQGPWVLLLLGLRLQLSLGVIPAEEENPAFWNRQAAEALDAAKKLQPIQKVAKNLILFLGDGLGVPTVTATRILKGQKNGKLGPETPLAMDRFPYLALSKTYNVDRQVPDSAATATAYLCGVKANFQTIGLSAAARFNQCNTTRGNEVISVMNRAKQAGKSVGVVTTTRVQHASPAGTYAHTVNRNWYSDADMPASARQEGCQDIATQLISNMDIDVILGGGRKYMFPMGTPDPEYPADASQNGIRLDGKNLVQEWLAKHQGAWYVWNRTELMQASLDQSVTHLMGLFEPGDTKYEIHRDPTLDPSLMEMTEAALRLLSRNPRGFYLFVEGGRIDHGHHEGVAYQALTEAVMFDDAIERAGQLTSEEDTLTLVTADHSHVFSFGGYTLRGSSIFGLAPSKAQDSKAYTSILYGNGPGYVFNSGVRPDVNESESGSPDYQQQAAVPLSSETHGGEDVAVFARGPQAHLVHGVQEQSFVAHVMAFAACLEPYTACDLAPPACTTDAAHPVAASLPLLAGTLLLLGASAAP
Sphingosine 1-phosphate receptor 4, sequence (O95977 whole entry): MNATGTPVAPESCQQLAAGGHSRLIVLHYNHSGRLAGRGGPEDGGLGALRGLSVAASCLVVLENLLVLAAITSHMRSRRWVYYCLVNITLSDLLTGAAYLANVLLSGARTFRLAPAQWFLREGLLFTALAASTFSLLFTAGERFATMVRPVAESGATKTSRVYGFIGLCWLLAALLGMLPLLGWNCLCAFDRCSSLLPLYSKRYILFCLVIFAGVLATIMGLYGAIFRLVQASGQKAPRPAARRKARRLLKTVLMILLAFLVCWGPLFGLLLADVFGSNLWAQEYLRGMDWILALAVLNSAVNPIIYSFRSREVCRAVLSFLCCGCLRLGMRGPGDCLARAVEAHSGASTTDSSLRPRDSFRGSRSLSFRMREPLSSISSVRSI
Peroxisome proliferator-activated receptor gamma/Nuclear receptor coactivator 1, sequence (P37231 whole entry): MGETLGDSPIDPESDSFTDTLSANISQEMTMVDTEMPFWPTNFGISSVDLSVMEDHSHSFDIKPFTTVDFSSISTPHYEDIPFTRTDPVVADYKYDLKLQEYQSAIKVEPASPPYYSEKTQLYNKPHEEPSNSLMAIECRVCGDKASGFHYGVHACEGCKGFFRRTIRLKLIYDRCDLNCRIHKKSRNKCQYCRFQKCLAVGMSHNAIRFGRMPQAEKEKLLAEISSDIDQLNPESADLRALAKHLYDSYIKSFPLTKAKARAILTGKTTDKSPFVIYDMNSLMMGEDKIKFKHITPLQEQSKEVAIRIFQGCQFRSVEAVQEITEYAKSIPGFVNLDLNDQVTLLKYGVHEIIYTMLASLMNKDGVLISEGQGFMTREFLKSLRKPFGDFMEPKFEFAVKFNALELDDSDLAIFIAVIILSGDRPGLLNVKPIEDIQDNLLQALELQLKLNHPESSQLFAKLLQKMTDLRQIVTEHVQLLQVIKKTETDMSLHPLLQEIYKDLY
Peroxisome proliferator-activated receptor gamma/Nuclear receptor coactivator 1, sequence (Q15788 whole entry, further chain): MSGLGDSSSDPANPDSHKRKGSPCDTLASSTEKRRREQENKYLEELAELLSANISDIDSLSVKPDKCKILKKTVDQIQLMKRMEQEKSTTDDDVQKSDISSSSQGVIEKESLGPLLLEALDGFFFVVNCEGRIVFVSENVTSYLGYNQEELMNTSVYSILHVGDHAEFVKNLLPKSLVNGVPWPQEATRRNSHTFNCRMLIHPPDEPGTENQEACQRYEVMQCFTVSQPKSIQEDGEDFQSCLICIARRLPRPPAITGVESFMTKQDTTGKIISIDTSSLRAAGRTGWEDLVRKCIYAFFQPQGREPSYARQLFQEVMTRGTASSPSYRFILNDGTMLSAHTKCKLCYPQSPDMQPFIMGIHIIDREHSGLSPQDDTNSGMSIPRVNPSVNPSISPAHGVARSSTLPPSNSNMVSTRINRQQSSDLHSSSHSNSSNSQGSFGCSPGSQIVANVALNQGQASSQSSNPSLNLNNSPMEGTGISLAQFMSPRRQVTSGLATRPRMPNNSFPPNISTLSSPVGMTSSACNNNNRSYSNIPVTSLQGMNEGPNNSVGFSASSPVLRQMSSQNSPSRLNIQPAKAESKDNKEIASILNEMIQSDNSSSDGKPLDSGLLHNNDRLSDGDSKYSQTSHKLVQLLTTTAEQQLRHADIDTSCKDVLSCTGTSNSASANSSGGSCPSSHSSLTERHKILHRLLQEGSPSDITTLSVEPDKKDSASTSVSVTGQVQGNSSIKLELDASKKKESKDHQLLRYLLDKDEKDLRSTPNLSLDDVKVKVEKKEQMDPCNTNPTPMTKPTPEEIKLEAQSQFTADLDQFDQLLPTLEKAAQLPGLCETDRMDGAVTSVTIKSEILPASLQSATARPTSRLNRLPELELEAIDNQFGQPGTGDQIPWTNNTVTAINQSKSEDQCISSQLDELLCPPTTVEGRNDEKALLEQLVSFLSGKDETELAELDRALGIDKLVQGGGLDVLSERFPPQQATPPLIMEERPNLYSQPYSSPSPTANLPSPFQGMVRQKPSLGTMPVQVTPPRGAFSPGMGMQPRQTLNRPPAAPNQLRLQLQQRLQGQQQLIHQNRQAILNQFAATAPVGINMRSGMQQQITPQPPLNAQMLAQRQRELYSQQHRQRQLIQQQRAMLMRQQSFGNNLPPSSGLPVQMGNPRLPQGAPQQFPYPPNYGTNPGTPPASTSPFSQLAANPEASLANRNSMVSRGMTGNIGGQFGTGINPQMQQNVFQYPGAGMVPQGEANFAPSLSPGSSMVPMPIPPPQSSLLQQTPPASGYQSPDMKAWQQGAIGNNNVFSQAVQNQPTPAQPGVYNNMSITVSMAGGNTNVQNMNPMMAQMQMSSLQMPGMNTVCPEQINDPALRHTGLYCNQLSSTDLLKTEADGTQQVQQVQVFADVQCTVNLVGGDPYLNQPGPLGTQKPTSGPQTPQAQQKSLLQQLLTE
Beta-galactosidase, sequence (Q8VNN2 whole entry): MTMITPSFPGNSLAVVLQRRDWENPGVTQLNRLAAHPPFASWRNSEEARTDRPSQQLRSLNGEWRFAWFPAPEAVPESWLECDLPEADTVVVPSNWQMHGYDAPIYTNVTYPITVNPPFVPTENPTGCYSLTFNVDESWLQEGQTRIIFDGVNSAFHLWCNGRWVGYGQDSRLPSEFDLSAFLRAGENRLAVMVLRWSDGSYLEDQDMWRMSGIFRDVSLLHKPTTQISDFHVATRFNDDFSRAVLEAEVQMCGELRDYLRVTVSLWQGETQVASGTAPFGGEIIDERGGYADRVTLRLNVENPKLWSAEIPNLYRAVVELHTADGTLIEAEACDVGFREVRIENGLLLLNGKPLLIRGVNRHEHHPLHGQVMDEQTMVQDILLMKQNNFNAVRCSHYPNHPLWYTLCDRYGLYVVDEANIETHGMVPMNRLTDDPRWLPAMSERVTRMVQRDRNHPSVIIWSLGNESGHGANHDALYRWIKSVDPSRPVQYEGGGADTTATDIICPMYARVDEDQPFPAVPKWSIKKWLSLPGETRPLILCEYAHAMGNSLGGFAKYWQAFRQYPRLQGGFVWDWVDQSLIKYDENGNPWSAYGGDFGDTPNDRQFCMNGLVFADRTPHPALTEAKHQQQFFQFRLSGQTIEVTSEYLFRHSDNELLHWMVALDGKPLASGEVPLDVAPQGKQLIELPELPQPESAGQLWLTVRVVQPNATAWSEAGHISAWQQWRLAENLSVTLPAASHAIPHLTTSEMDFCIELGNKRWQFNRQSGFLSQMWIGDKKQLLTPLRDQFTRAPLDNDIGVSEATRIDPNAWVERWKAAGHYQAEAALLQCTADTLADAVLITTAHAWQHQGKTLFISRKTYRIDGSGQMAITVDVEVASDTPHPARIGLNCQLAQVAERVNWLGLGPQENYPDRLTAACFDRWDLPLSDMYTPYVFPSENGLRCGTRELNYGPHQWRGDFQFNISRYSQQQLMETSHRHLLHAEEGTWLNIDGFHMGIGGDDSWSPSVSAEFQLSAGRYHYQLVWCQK
Protein-arginine deiminase type-4, sequence (Q9UM07 whole entry): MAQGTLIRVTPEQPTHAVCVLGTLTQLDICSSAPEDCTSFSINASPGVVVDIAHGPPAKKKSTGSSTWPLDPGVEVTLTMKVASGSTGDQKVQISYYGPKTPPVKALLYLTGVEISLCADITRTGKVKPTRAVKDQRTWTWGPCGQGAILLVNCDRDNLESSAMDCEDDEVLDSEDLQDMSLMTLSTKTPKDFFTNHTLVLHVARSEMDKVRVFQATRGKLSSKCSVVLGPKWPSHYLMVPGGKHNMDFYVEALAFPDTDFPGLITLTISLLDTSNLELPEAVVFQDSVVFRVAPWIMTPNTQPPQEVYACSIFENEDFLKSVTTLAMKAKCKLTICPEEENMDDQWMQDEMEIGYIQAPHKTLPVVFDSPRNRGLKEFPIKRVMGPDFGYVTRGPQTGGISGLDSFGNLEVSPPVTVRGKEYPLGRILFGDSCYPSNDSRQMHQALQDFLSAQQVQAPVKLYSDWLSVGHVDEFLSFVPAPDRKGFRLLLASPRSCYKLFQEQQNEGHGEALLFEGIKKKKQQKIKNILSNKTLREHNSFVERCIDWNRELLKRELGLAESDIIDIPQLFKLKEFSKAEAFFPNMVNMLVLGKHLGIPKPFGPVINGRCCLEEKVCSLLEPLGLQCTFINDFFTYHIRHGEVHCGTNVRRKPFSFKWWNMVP

One may read the EC50 as the concentration at which the effect is half-maximal. As for `Fc1cccc(F)c1CSc1nnc(-c2ccccn2)n1Cc1ccco1`, the EC50 in test [1] is > 32 µM (inactive); in [2], > 64 µM (inactive); in test [3] it was > 20 µM (inactive); at Mu-type opioid receptor it was > 32 µM (inactive).

By IC50 is commonly meant the concentration needed to halve the response being measured. As to `C/C(=N/NC(N)=S)c1cc2ccc(O)cc2oc1=O`, the EC50 in [4] was 11.8 µM (not active); in test [5], 93.5 µM (inactive). For the same compound, the IC50 at Large T antigen was 27.7 µM (active).

For the compound `C=CCN1C(=O)C2(NNc3ccccc3O2)c2ccccc21` (stereo not given), the results for the half-inhibitory concentration (IC50) (in “cells [6]”; in test [7]) were 11.7 µM (active) and 14.2 µM (active), respectively. Besides, the EC50 in test [8] is 11.3 µM (active); in test [9], 636 nM (active); in test [10], 514 nM (active); in test [11] it was < 195 nM (not active).

Turning to `O=C1NCC2=C1C(c1ccccc1)Nc1ccccc1N2` (stereo not given), in test [12], the IC50 was > 100 µM (inactive).

Regarding `CCOc1ccc(CCNC(=O)CSc2cc(=O)n(CC)c3ccccc23)cc1OCC`, the EC50 in [13] is > 79.4 µM (inactive); in test [14], 121 µM (not active); in [15] it was > 79.4 µM (not active).

A word on the AC50: it is the midpoint of the concentration-response curve, whichever way the signal moves. As to `Oc1ccc2ccccc2c1N=Nc1ccccn1`, the EC50 in test [16] was 2.43 µM (active); in “cells [17]”, 41 µM (active); at Beta-galactosidase it was 25.7 µM (active); in test [18], 3.4 µM (active); in test [20], 471 nM (active); in test [23] it was 10.8 µM (active). For the same compound, the half-maximal effective concentration (EC50) in the test “cells [25]” was 24 µM (active); in test [27] it was 11.4 µM (active); in test [28], 2.29 µM (active). The IC50 in test [19] was > 80 µM (inactive); at Nonstructural protein 1, 13.9 µM (active); in test [21], > 118 µM (inactive); at Exodeoxyribonuclease V, > 118 µM (inactive); in test [22] it was greater than 32 µM; in test [24] it was 5.12 µM (active). Moreover, the half-maximal activity concentration (AC50) is 746 nM (active) with INS1, 7.41 µM (active) in the test on HEK293 and 2.7 µM (active) in test [26].
